The test concerns Spontaneous hypertensive rat-derived vascular smooth muscle cells (VSMCs) in thoracic aorta. Kind of test: Inhibition test on vascular smooth muscle cells proliferation (3H-thymidine incorporation). It counts as cell-based. The settings on record: 3H-thymidine incorporation into DNA, 24 hours incubation with compound, read-out: Concentration of 50% inhibitory activity (IC50). As for the experimental part:
Thus, the compounds of the present invention have a very potent inhibitory effect on vascular smooth muscle cells proliferation.
Spontaneous hypertensive rat-derived vascular smooth muscle cells (VSMCs) in thoracic aorta were isolated by explant technique. The VSMCs were placed into 96 wells at 5000 cells/well and incubated in DMEM containing 10 % fetal calf serum at 37 °C in 95 % air and 5 % carbon dioxide for 3 days. After the incubation, the medium was replaced with DMEM containing each compound and ^3H-thymidine, and then the VSMCs were incubated. 24 hours later, the incorporation of ^3H-thymidine into DNA was determined and the radioactivity was defined as proliferation inhibitory activity of VSMCs. The activity of each compound was shown as a concentration which reduced the radioactivity of non-treated group by 50 % (IC50).
(Dividing cells build labelled thymidine or BrdU into new DNA.)

Where two headings read alike, the source gives them in different places.

46 compounds from patent EP0855387A1, “2-ACYLAMINOBENZAMIDE DERIVATIVES AND PREVENTIVE AND REMEDY FOR DISEASES CAUSED BY THE SUPERMULTIPLICATION OF VASCULAR INTIMAL CELLS” (KISSEI PHARMACEUTICAL CO., LTD., priority 1995, dated 1997) can be followed below.

As for `CCOc1cccc(/C=C/C(=O)Nc2ccccc2C(N)=O)c1` [Compound 1, (E)-2-(3-Ethoxycinnamoylamino)benzamide], the IC50 (Rattus norvegicus, VSMC) stood at 2 µM. In the case of `CC(C)Oc1cccc(/C=C/C(=O)Nc2ccccc2C(N)=O)c1` [Compound 2, (E)-2-(3-Isopropoxycinnamoylamino)benzamide], the IC50 (Rattus norvegicus, VSMC) turned out to be 14 µM. The same measure, in the same setting: to `CCOC(=O)c1ccccc1/C=C/C(=O)Nc1ccccc1C(N)=O` [Compound 3, (E)-2-(2-Ethoxycarbonylcinnamoylamino)benzamide] belongs 46 µM; to `COc1cccc(/C=C/C(=O)Nc2ccccc2C(N)=O)c1OC` [Compound 5, (E)-2-(2,3-Dimethoxycinnamoylamino)benzamide], 5 µM; to `NC(=O)c1ccccc1NC(=O)/C=C/c1cccc(OCc2ccccc2)c1` [Compound 6, (E)-2-(3-Benzyloxycinnamoylamino)benzamide], 9 µM. As for `CCCCOc1cccc(/C=C/C(=O)Nc2ccccc2C(N)=O)c1` [Compound 7, (E)-2-(3-Butoxycinnamoylamino)benzamide], the IC50 (Rattus norvegicus, VSMC) was found to be 86 µM. As for `CCOc1ccc(/C=C/C(=O)Nc2ccccc2C(N)=O)cc1` [Compound 9, (E)-2-(4-Ethoxycinnamoylamino)benzamide], the IC50 (Rattus norvegicus, VSMC) was determined as 5 µM. For the compound `COc1cccc(/C=C/C(=O)Nc2ccccc2C(N)=O)c1` [Compound 11, (E)-2-(3-Methoxycinnamoylamino)benzamide], the IC50 (Rattus norvegicus, VSMC) is 9 µM. The same measure, in the same setting: to `COc1ccc(/C=C/C(=O)Nc2ccccc2C(N)=O)c(OC)c1` [Compound 12, (E)-2-(2,4-Dimethoxycinnamoylamino)benzamide] belongs 3 µM. On the same count and under the same terms, then `COc1ccc(OC)c(/C=C/C(=O)Nc2ccccc2C(N)=O)c1` [Compound 13, (E)-2-(2,5-Dimethoxycinnamoylamino)benzamide], with 3 µM; and `CCOc1cc(/C=C/C(=O)Nc2ccccc2C(N)=O)ccc1OC` [Compound 16, (E)-2-(3-Ethoxy-4-methoxycinnamoylamino)benzamide], with 5 µM. `CCCCNC(=O)c1ccccc1NC(=O)/C=C/c1ccc(OC)c(OC)c1` [Compound 19, (E)-N-Butyl-2-(3,4-dimethoxycinnamoylanino)benzamide]: the IC50 came to 5 µM. As for `COc1ccc(/C=C/C(=O)Nc2ccccc2C(=O)NCCCc2ccccc2)cc1OC` [Compound 20, (E)-2-(3,4-Dimethoxycinnanoylamino)-N-(3-phenylpropyl)benzamide], the IC50 is 7 µM.

With `CCOc1ccccc1/C=C/C(=O)Nc1ccccc1C(N)=O` [Compound 21, (E)-2-(2-Ethoxycinnamoylamino)benzamide], the IC50 (Rattus norvegicus, VSMC) was found to be 30 µM. With `NC(=O)c1ccccc1NC(=O)/C=C/c1cccc(Cl)c1` [Compound 22, (E)-2-(3-Chlorocinnamoylamino)benzamide], the IC50 (Rattus norvegicus, VSMC) amounted to 30 µM. On the same count and under the same terms, to `NC(=O)c1ccccc1NC(=O)/C=C/c1cccc(F)c1` [Compound 23, (E)-2-(3-Fluorocinnamoylamino)benzamide] belongs 39 µM.

For `COc1ccccc1/C=C/C(=O)Nc1ccccc1C(N)=O` [Compound 24, (E)-2-(2-Methoxycinnamoylamino)benzamide], the IC50 (Rattus norvegicus, VSMC) was 8 µM. On the same count and under the same terms, then `COc1cc(OC)c(OC)cc1/C=C/C(=O)Nc1ccccc1C(N)=O` [Compound 25, (E)-2-(2,4,5-Trimethoxycinnamoylamino)benzamide], with 6 µM; and `COc1cc(/C=C/C(=O)Nc2ccccc2C(N)=O)cc(OC)c1OC` [Compound 26, (E)-2-(3,4,5-Trimethoxycinnamoylamino)benzamide], with 7 µM. On the same count and under the same terms, then `NC(=O)c1ccccc1NC(=O)/C=C/c1ccc2c(c1)OCO2` [Compound 30, (E)-2-(3,4-Methylenedioxycinnamoylamino)benzamide], with 9 µM; and `COc1ccc(/C=C/C(=O)Nc2ccccc2C(N)=O)c(OC)c1OC` [Compound 31, (E)-2-(2,3,4-Trimethoxycinnamoylamino)benzamide], with 54 µM.

On to `COc1cc(/C=C/C(=O)Nc2ccccc2C(N)=O)cc(OC)c1` [Compound 32, (E)-2-(3,5-Dimethoxycinnamoylamino)benzamide], for which, for the setting “Rattus norvegicus, VSMC”, the IC50 is 80 µM.

On to `CC(=O)c1ccc(/C=C/C(=O)Nc2ccccc2C(N)=O)cc1` [Compound 33, (E)-2-(4-Acetylcinnamoylamino)benzamide], for which, for the setting “Rattus norvegicus, VSMC”, the IC50 stood at 78 µM. For `CCOc1c(OC)cc(/C=C/C(=O)Nc2ccccc2C(N)=O)cc1OC` [Compound 35, (E)-2-(3,5-Dimethoxy-4-ethoxycinnamoylamino)benzamide], under “Rattus norvegicus, VSMC”, the IC50 was 61 µM. On the same count and under the same terms, then `COc1cc(OC)c(/C=C/C(=O)Nc2ccccc2C(N)=O)c(OC)c1` [Compound 37, (E)-2-(2,4,6-Trimethoxycinnamoylamino)benzamide], with 100 µM; and `NC(=O)c1ccccc1NC(=O)/C=C/c1ccc2c(c1)OCCO2` [Compound 38, (E)-2-(3,4-Ethylenedioxycinnamoylamino)benzamide], with 58 µM; and `COc1ccc(/C=C/C(=O)Nc2ccccc2C(=O)NCCN(C)C)cc1OC` [Compound 39, (E)-2-(3,4-Dimethoxycinnamoylamino)-N-(2-dimethylaminoethyl)benzamide], with 55 µM. Still for that read-out and setting: to `COc1ccc(/C=C/C(=O)Nc2ccccc2C(=O)NCCOCCO)cc1OC` [Compound 42, (E)-2-(3,4-Dimethoxycinnamoylamino)-N-[2-(2-hydroxyethoxy)ethyl]benzamide] belongs 69 µM; to `COc1cc(/C=C/C(=O)Nc2ccccc2C(=O)NCCOCCO)cc(OC)c1OC` [Compound 43, (E)-N-[2-(2-Hydroxyethoxy)ethyl]-2-(3,4,5-trimethoxycinnamoylamino)benzamide], 44 µM; to `CCOc1ccc(/C=C/C(=O)Nc2ccccc2C(=O)NCCOCCO)cc1OC` [Compound 44, (E)-2-(4-Ethoxy-3-methoxycinnamoylamino)-N-[2-(2-hydroxyethoxy)ethyl]benzamide], 58 µM. Turning to `COc1cc(/C=C/C(=O)Nc2ccccc2C(=O)NCCO)cc(OC)c1OC` [Compound 45, (E)-N-(2-Hydroxyethyl)-2-(3,4,5-trimethoxycinnnamoylamino)benzamide], the IC50 was 34 µM. As to `COc1ccc(/C=C/C(=O)Nc2ccccc2C(=O)NCCO)cc1OC` [Compound 46, (E)-2-(3,4-Dimethoxycinnamoylamino)-N-(2-hydroxyethyl)benzamide], the IC50 (Rattus norvegicus, VSMC) stood at 58 µM.

Regarding `COc1ccc(/C=C/C(=O)Nc2ccccc2C(=O)NCCCCO)cc1OC` [Compound 47, (E)-2-(3,4-Dimethoxycinnamoylamino)-N-(4-hydroxybutyl)benzamide], the IC50 (Rattus norvegicus, VSMC) amounted to 60 µM. Same read-out and setting: to `COc1cc(/C=C/C(=O)Nc2ccccc2C(=O)NCCCCO)cc(OC)c1OC` [Compound 48, (E)-N-(4-Hydroxybutyl)-2-(3,4,5-trimethoxycinnamoylamino)benzamide] belongs 42 µM. In the case of `CCOc1cc(/C=C/C(=O)Nc2ccccc2C(=O)NCCO)ccc1OC` [Compound 49, (E)-2-(3-Ethoxy-4-methoxycinnamoylamino)-N-(2-hydroxyethyl)benzamide], the IC50 (Rattus norvegicus, VSMC) came out at 42 µM. Same read-out and setting: then `COc1ccc(/C=C/C(=O)Nc2ccccc2C(=O)NCCN(CCO)CCO)cc1OC` [Compound 50, (E)-N-[2-[Bis(2-hydroxyethyl)amino]ethyl]-2-(3,4-dimethoxycinnamoylamino)benzamide], with 71 µM; and `COc1cc(/C=C/C(=O)Nc2ccccc2C(=O)NCCN(CCO)CCO)cc(OC)c1OC` [Compound 51, (E)-N-[2-[Bis(2-hydroxyethyl)amino]ethyl]-2-(3,4,5-trimethoxycinnamoylamino)benzamide], with 28 µM.

`COc1ccc(C=C(C#N)C(=O)Nc2ccccc2C(N)=O)cc1OC` [Compound 52, 2-(α-Cyano-3,4-dimethoxycinnamoylamino)benzamide]: for the setting “Rattus norvegicus, VSMC”, the IC50 is 117 µM. For the compound `COc1ccc(C(C#N)=CC(=O)Nc2ccccc2C(N)=O)cc1OC` [Compound 53, 2-(β-Cyano-3,4-dimethoxycinnamoylamino)benzamide], the IC50 (Rattus norvegicus, VSMC) stood at 56 µM.

As to `CN(C)c1ccc(/C=C/C(=O)Nc2ccccc2C(N)=O)cc1` [Compound 55, (E)-2-(4-Dimethylaminocinnamoylamino)benzamide], the IC50 (Rattus norvegicus, VSMC) worked out at 65 µM. Turning to `COc1ccc(/C=C/C(=O)Nc2cc(OC)c(OC)cc2C(=O)NCCO)cc1OC` [Compound 56, (E)-4,5-Dimethoxy-2-(3,4-dimethoxycinnamoylamino)-N-(2-hydroxyethyl)benzamide], the IC50 (Rattus norvegicus, VSMC) was determined as 44 µM.

With `COc1cc(NC(=O)/C=C/c2cc(OC)c(OC)c(OC)c2)c(C(N)=O)cc1OC` [Compound 57, (E)-4,5-Dimethoxy-2-(3,4,5-trimethoxycinnamoylamino)benzamide], where the note is “Rattus norvegicus, VSMC”, the IC50 came out at 9 µM. On to `CNC(=O)c1ccccc1NC(=O)/C=C/c1ccc(OC)c(OC)c1` [Compound 58, (E)-2-(3,4-Dimethoxycinnamoylamino)-N-methylbenzamide], for which the IC50 (Rattus norvegicus, VSMC) stood at 15 µM.

Consider `COc1ccc(/C=C/C(=O)Nc2ccccc2C(=O)NCC2CCCCC2)cc1OC` [Compound 59, (E)-N-Cyclohexylmethyl-2-(3,4-dimethoxycinnamoylamino)benzamide], for which, for the setting “Rattus norvegicus, VSMC”, the IC50 is 4 µM. On the same count and under the same terms, then `COc1ccc(/C=C/C(=O)Nc2ccccc2C(=O)NO)cc1OC` [Compound 60, (E)-2-(3,4-Dimethoxycinnamoylamino)-N-hydroxybenzamide], with 36 µM; and `CCOc1ccc(/C=C/C(=O)Nc2cc(OC)c(OC)cc2C(=O)NCCO)cc1OC` [Compound 61, (E)-4,5-Dimethoxy-2-(4-ethoxy-3-methoxycinnamoylamino)-N-(2-hydroxyethyl)benzamide], with 45 µM.
